Columns and labels:
[1] = system: MDA-MB-435; assay: Growth inhibition of human MDA-MB-435 cells after 48 hrs by SRB assay; assay type: functional; details: MDA-MB-435, 48 h
[2] = system: CAKI-1; assay: Growth inhibition of human Caki1 cells at 10^-5 M after 48 hrs by SRB assay; assay type: functional; details: CAKI-1, 48 h, read-out: GI
[3] = system: NCI-H522; assay: Growth inhibition of human NCI-H522 cells at 10^-5 M after 48 hrs by SRB assay; assay type: functional; details: NCI-H522, 48 h, read-out: GI
[4] = system: NCI-H522; assay: Cytotoxicity against human NCI-H522 cells assessed as cell growth at 10^-5 M after 48 hrs by SRB assay; assay type: functional; details: NCI-H522, 48 h, read-out: Activity
[5] = Growth inhibition of human HCT116 cells at 10^-5 M after 48 hrs by SRB assay; assay type: functional; details: HCT-116, 48 h, read-out: GI
[6] = system: NCI-H522; assay: Growth inhibition of human NCI-H522 cells after 48 hrs by SRB assay; assay type: functional; details: NCI-H522, 48 h
[7] = system: A498; assay: Growth inhibition of human A498 cells at 10^-5 M after 48 hrs by SRB assay; assay type: functional; details: A498, 48 h, read-out: GI
[8] = system: MDA-MB-468; assay: Growth inhibition of human MDA-MB-468 cells after 48 hrs by SRB assay; assay type: functional; details: MDA-MB-468, 48 h
[9] = system: Malme-3M; assay: Growth inhibition of human MALME-3M cells at 10^-5 M after 48 hrs by SRB assay; assay type: functional; details: read-out: GI
[10] = system: NCI/ADR-RES; assay: Growth inhibition of human NCI/ADR-RES cells after 48 hrs by SRB assay; assay type: functional
[11] = system: SNB-75; assay: Growth inhibition of human SNB75 cells after 48 hrs by SRB assay; assay type: functional; details: SNB-75, 48 h
[12] = system: MCF7; assay: Growth inhibition of human MCF7 cells after 48 hrs by SRB assay; assay type: functional; details: MCF7, 48 h
[13] = Growth inhibition of human SF295 cells at 10^-5 M after 48 hrs by SRB assay; assay type: functional; details: SF-295, 48 h, read-out: GI
[14] = system: SR; assay: Growth inhibition of human SR cells after 48 hrs by SRB assay; assay type: functional
[15] = system: HL-60(TB); assay: Cytotoxicity against human HL-60(TB) cells assessed as cell growth at 10^-5 M after 48 hrs by SRB assay; assay type: functional; details: HL-60, 48 h, read-out: Activity
[16] = Growth inhibition of human MOLT4 cells at 10^-5 M after 48 hrs by SRB assay; assay type: functional; details: MOLT-4, 48 h, read-out: GI
[17] = Inhibition of sheep brain tubulin polymerization by fluorescence assay; parameters: species or system Ovis aries
[18] = Growth inhibition of human HOP92 cells at 10^-5 M after 48 hrs by SRB assay; assay type: functional; details: HOP-92, 48 h, read-out: GI
[19] = system: SNB-75; assay: Growth inhibition of human SNB75 cells at 10^-5 M after 48 hrs by SRB assay; assay type: functional; details: SNB-75, 48 h, read-out: GI
[20] = system: HL-60(TB); assay: Growth inhibition of human HL-60(TB) cells at 10^-5 M after 48 hrs by SRB assay; assay type: functional; details: HL-60, 48 h, read-out: GI
[21] = organism: Ovis aries; assay: Inhibition of sheep brain tubulin polymerization at 100 uM by fluorescence assay
[22] = system: HT-29; assay: Growth inhibition of human HT-29 cells after 48 hrs by SRB assay; assay type: functional; details: HT-29, 48 h
[23] = system: T47D; assay: Growth inhibition of human T47D cells at 10^-5 M after 48 hrs by SRB assay; assay type: functional; details: Homo sapiens, T47D, 48 h; read-out: GI
[24] = system: MDA-MB-435; assay: Cytotoxicity against human MDA-MB-435 cells assessed as cell growth at 10^-5 M after 48 hrs by SRB assay; assay type: functional; details: MDA-MB-435, 48 h, read-out: Activity
[25] = Growth inhibition of human OVCAR3 cells after 48 hrs by SRB assay; assay type: functional; details: OVCAR-3, 48 h
[26] = system: HL-60(TB); assay: Growth inhibition of human HL-60(TB) cells after 48 hrs by SRB assay; assay type: functional; details: HL-60, 48 h
[27] = system: KM12; assay: Growth inhibition of human KM12 cells after 48 hrs by SRB assay; assay type: functional; details: KM12, 48 h
[28] = system: A498; assay: Cytotoxicity against human A498 cells assessed as cell growth at 10^-5 M after 48 hrs by SRB assay; assay type: functional; details: A498, 48 h, read-out: Activity
[29] = Growth inhibition of human HCT15 cells at 10^-5 M after 48 hrs by SRB assay; assay type: functional; details: HCT-15, 48 h, read-out: GI
[30] = system: MCF7; assay: Growth inhibition of human MCF7 cells at 10^-5 M after 48 hrs by SRB assay; assay type: functional; details: MCF7, 48 h, read-out: GI
[31] = system: K562; assay: Growth inhibition of human K562 cells after 48 hrs by SRB assay; assay type: functional; details: K562, 48 h
[32] = Growth inhibition of human PC3 cells at 10^-5 M after 48 hrs by SRB assay; assay type: functional; details: PC-3, 48 h, read-out: GI
[33] = system: SK-MEL-5; assay: Growth inhibition of human SK-MEL-5 cells after 48 hrs by SRB assay; assay type: functional; details: SK-MEL-5, 48 h
[34] = system: A498; assay: Growth inhibition of human A498 cells after 48 hrs by SRB assay; assay type: functional; details: A498, 48 h
[35] = Growth inhibition of human EKVX cells at 10^-5 M after 48 hrs by SRB assay; assay type: functional; details: read-out: GI
[36] = system: MDA-MB-435; assay: Growth inhibition of human MDA-MB-435 cells at 10^-5 M after 48 hrs by SRB assay; assay type: functional; details: MDA-MB-435, 48 h, read-out: GI
[37] = Growth inhibition of human COLO205 cells after 48 hrs by SRB assay; assay type: functional; details: COLO 205, 48 h
[38] = Growth inhibition of human PC3 cells after 48 hrs by SRB assay; assay type: functional; details: PC-3, 48 h
[39] = system: SF-295; assay: Cytotoxicity against human SF295 cells assessed as cell growth at 10^-5 M after 48 hrs by SRB assay; assay type: functional; details: SF-295, 48 h, read-out: Activity
[40] = system: SNB-75; assay: Cytotoxicity against human SNB75 cells assessed as cell growth at 10^-5 M after 48 hrs by SRB assay; assay type: functional; details: SNB-75, 48 h, read-out: Activity

Row | SMILES | GI50 [1] [nM] | inhibition of growth at 10 µM [2] [%] | inhibition of growth at 10 µM [3] [%] | growth at 10 µM [4] [%] | inhibition of growth at 10 µM [5] [%] | GI50 [6] [nM] | inhibition of growth at 10 µM [7] [%] | GI50 [8] [nM] | inhibition of growth at 10 µM [9] [%] | inhibition of growth at 10 µM [13] [%] | inhibition of growth at 10 µM [16] [%] | inhibition of growth at 10 µM [18] [%] | inhibition of growth at 10 µM [19] [%] | inhibition of growth at 10 µM [20] [%] | inhibition [21] [%] | inhibition of growth at 10 µM [23] [%] | inhibition of growth at 10 µM [29] [%] | inhibition of growth at 10 µM [30] [%] | inhibition of growth at 10 µM [32] [%] | inhibition of growth at 10 µM [36] [%] | further results
1 | CCOC(=O)c1cc(C(=O)c2cc(OC)c(OC)c(OC)c2)n2cccc(C#N)c12 | 30 | 74 | 100 | -10 | 79 | 142 | 100 | 332 | 44 | 81 | 72 | 89 | 82 | 100 | 69 | 60 | 66 | 71 | 68 | 100 | GI50 [10]: 158 nM; GI50 [11]: 164 nM; GI50 [12]: 252 nM; GI50 [14]: 63 nM; growth at 10 µM [15]: -14%; IC50 [17]: 12000 nM; GI50 [22]: 236 nM; growth at 10 µM [24]: -29%; GI50 [25]: 180 nM; GI50 [26]: 220 nM; GI50 [27]: 190 nM; growth at 10 µM [28]: -13%; GI50 [31]: 222 nM; GI50 [33]: 94 nM; GI50 [34]: 201 nM; inhibition of growth at 10 µM [35]: 50%; GI50 [37]: 171 nM; GI50 [38]: 230 nM
2 | CCOC(=O)c1cc(C(=O)c2cc(OC)c(OC)c(OC)c2)n2c(C)cccc12 | 30 | 63 | 100 | -32 | 91 | 66 | 100 | 111 | 63 | 100 | 96 | 26 | 88 | 100 | 83 | 63 | 78 | 86 | 77 | 100 | GI50 [10]: 65 nM; GI50 [11]: 121 nM; GI50 [12]: 56 nM; GI50 [14]: 33 nM; growth at 10 µM [15]: -42%; IC50 [17]: 8020 nM; GI50 [22]: 40 nM; growth at 10 µM [24]: -48%; GI50 [25]: 40 nM; GI50 [26]: 34 nM; GI50 [27]: 60 nM; growth at 10 µM [39]: -32%; growth at 10 µM [28]: -3%; GI50 [31]: 53 nM; GI50 [33]: 61 nM; GI50 [34]: 52 nM; inhibition of growth at 10 µM [35]: 57%; GI50 [37]: 108 nM; GI50 [38]: 122 nM
3 | COc1ccc(C(=O)c2cc(C#N)c3c(C)cc(C)cn23)cc1 | – | 28 | 58 | – | 80 | – | 53 | – | 35 | 30 | 1 | 43 | 100 | 0 | 27 | 60 | 27 | 46 | 38 | 27 | growth at 10 µM [40]: -4%

Reference: ChEMBL document CHEMBL3352214, “Studies on indolizines. Evaluation of their biological properties as microtubule-interacting agents and as melanoma targeting compounds” (Eur J Med Chem, 2015)
